Measured values published in US4118561A, “7-(Substituted)-7H-pyrrolo[3,2-f]quinazoline-1,3-diamines” (priority 1977, dated 1978).
Converted amounts (≈) assume the structure as drawn. Where two headings read alike, the source gives them in different places.

How the values were obtained:
E. coli 9637 = assay: In vitro antibacterial activity (MIC), E. coli 9637; conditions: Escherichia coli, 9637, 18 h
[1] = test system: Plasmodium berghei KBG 173; assay: Antimalarial blood schizonticidal test in mice; assay type: in vivo, Plasmodium berghei (infected ICR/HA Swiss mice); design: ΔMST (increase in mean survival time): unit: days; conditions: for ED100 / minimal effective dose: Plasmodium berghei, sc; for ED100: read-out: Lowest Dose Curing All Mice; for minimal effective dose: read-out: Min. Curing Dose; for Cure/Treat at Min. Curing Dose: at the Min. Curing Dose
How it was run: (§1)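 Single s.c. doses (peanut oil vehicle, graded levels) given 72 h after i.p. inoculation of young Swiss mice with P. berghei KBG 173 blood (4 × 10^7 parasitized cells). Activity judged by cures (alive at 60 days) or significant mean survival gain over untreated controls, without drug-related deaths.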

[2] = Antimalarial blood schizonticidal test in mice; assay type: in vivo, Plasmodium berghei (infected ICR/HA Swiss mice); design: ΔMST (increase in mean survival time): unit: days; conditions: mouse, in vivo, sc, single dose, read-out: Highest Non-Lethal Dose
How it was run: as §1

[3] = test system: lymphocytic leukemia P-388; assay: Activity in mice against lymphocytic leukemia P-388; assay type: in vivo; conditions: Mus musculus, P388, ip, read-out: T/C
K. pneumoniae 10031 = assay: In vitro antibacterial activity (MIC), K. pneumoniae 10031; conditions: Klebsiella pneumoniae, 10031, 18 h
S. paratyphi 11737 = assay: In vitro antibacterial activity (MIC), S. paratyphi 11737; assay type: cell-based; conditions: Salmonella enterica, 18 h
P. vulgaris 6896 = assay: In vitro antibacterial activity (MIC), P. vulgaris 6896; conditions: Proteus vulgaris, 6896, 18 h
S. aureus 53-180 = assay: In vitro antibacterial activity (MIC), S. aureus 53-180; conditions: Staphylococcus aureus, 53180, 18 h
N. catarrhalis 8193 = assay: In vitro antibacterial activity (MIC), N. catarrhalis 8193; conditions: 18 h
S. aureus Smith = assay: In vitro antibacterial activity (MIC), S. aureus Smith; conditions: Staphylococcus aureus, 18 h
[4] = 1440 h, s.c., single dose, 60-day survivors
[5] = infected mice, highest dose with no deaths for any reason
[6] = 336 h, s.c., single dose, alive on day 14 considered cured, no 60-day data
[7] = s.c., alive on day 14 considered cured
[8] = alive on day 14 considered cured, no 60-day data

## CCOC(=O)c1ccc(Cn2ccc3c4c(N)nc(N)nc4ccc32)cc1 [Example 17]
E. coli 9637
  MIC: 7.81 µg/mL (≈ 21.6 µM)
[1]; [4]
  ED100: 20 mg/kg
  minimal effective dose: 10 mg/kg
[1]; s.c., 60-day survivors
  Cure/Treat at Min. Curing Dose: 1/5
[1]; s.c., dose 2.5 mg. per kg.
  ΔMST (increase in mean survival time): 6.0
[2]; [5]
  MTD: 80 mg/kg
[3]; mice, I.P., 10 mg/kg
  response vs control in vivo at 10 mg/kg: 141%
K. pneumoniae 10031
  MIC: 1.95 µg/mL (≈ 5.4 µM)
S. paratyphi 11737
  MIC: > 250 µg/mL
P. vulgaris 6896
  MIC: > 250 µg/mL
S. aureus 53-180
  MIC: 1.95 µg/mL (≈ 5.4 µM)
N. catarrhalis 8193
  MIC: 0.488 µg/mL (≈ 1.35 µM)
S. aureus Smith
  MIC: 1.95 µg/mL (≈ 5.4 µM)

## Nc1nc(N)c2c(ccc3c2ccn3Cc2cccc([N+](=O)[O-])c2)n1 [Example 18, 7-[(3-nitrophenyl)methyl]-7H-pyrrolo[3,2-f]quinazoline-1,3-diamine]
E. coli 9637
  MIC: 0.488 µg/mL (≈ 1.46 µM)
[1]; [4]
  ED100: 10 mg/kg
  minimal effective dose: 2.5 mg/kg
[1]; s.c., 60-day survivors
  Cure/Treat at Min. Curing Dose: 3/5
[1]; s.c., dose 2.5 mg. per kg.
  ΔMST (increase in mean survival time): 7.4
[2]; [5]
  MTD: 40 mg/kg
[3]; mice, I.P., 5 mg/kg
  response vs control in vivo at 5 mg/kg: 163%
K. pneumoniae 10031
  MIC: 0.122 µg/mL (≈ 0.365 µM)
S. paratyphi 11737
  MIC: 0.976 µg/mL (≈ 2.92 µM)
P. vulgaris 6896
  MIC: 3.9 µg/mL (≈ 11.7 µM)
S. aureus 53-180
  MIC: 0.061 µg/mL (≈ 0.182 µM)
N. catarrhalis 8193
  MIC: 0.0152 µg/mL (≈ 0.0455 µM)
S. aureus Smith
  MIC: 0.122 µg/mL (≈ 0.365 µM)

## Cc1ccc(Cn2ccc3c4c(N)nc(N)nc4ccc32)cc1 [Example 21]
E. coli 9637
  MIC: 0.976 µg/mL (≈ 3.22 µM)
[1]; [4]
  ED100: 20 mg/kg
  minimal effective dose: 10 mg/kg
[1]; s.c., 60-day survivors
  Cure/Treat at Min. Curing Dose: 2/5
[1]; s.c., dose 5 mg. per kg.
  ΔMST (increase in mean survival time): 7.5
[2]; [5]
  MTD: 160 mg/kg
[3]
  response vs control in vivo at 10 mg/kg: 138%
K. pneumoniae 10031
  MIC: 0.122 µg/mL (≈ 0.402 µM)
S. paratyphi 11737
  MIC: 1.95 µg/mL (≈ 6.43 µM)
P. vulgaris 6896
  MIC: 1.95 µg/mL (≈ 6.43 µM)
S. aureus 53-180
  MIC: 0.488 µg/mL (≈ 1.61 µM)
N. catarrhalis 8193
  MIC: 0.0152 µg/mL (≈ 0.0501 µM)
S. aureus Smith
  MIC: 0.976 µg/mL (≈ 3.22 µM)

## Cc1ccc(Cn2ccc3c4c(N)nc(N)nc4ccc32)cc1C [Example 25]
E. coli 9637
  MIC: 1.95 µg/mL (≈ 6.14 µM)
[1]; [6]
  ED100: 10 mg/kg
  minimal effective dose: 5 mg/kg
[1]; [7]
  Cure/Treat at Min. Curing Dose: 2/5
[1]; s.c., dose 2.5 mg. per kg., alive on day 14 considered cured, no 60-day data
  ΔMST (increase in mean survival time): 6.5
[2]; [8]
  MTD: 80 mg/kg
[3]; mice, I.P., 10 mg/kg
  response vs control in vivo at 10 mg/kg: 139%
K. pneumoniae 10031
  MIC: 0.488 µg/mL (≈ 1.54 µM)
S. paratyphi 11737
  MIC: 31.3 µg/mL (≈ 98.6 µM)
P. vulgaris 6896
  MIC: 62.5 µg/mL (≈ 197 µM)
S. aureus 53-180
  MIC: 0.976 µg/mL (≈ 3.08 µM)
N. catarrhalis 8193
  MIC: 0.122 µg/mL (≈ 0.384 µM)
S. aureus Smith
  MIC: 1.95 µg/mL (≈ 6.14 µM)

## COc1ccc(Cn2ccc3c4c(N)nc(N)nc4ccc32)cc1OC [Example 37]
E. coli 9637
  MIC: 0.488 µg/mL (≈ 1.4 µM)
[1]; [4]
  ED100: 20 mg/kg
  minimal effective dose: 10 mg/kg
[1]; s.c., 60-day survivors
  Cure/Treat at Min. Curing Dose: 1/5
[1]; s.c., dose 2.5 mg. per kg.
  ΔMST (increase in mean survival time): 6.9
[2]; [5]
  MTD: 80 mg/kg
[3]; mice, I.P., 10 mg/kg
  response vs control in vivo at 10 mg/kg: 174%
K. pneumoniae 10031
  MIC: 0.061 µg/mL (≈ 0.175 µM)
S. paratyphi 11737
  MIC: 1.95 µg/mL (≈ 5.58 µM)
P. vulgaris 6896
  MIC: 1.95 µg/mL (≈ 5.58 µM)
S. aureus 53-180
  MIC: 0.122 µg/mL (≈ 0.349 µM)
N. catarrhalis 8193
  MIC: 0.0152 µg/mL (≈ 0.0435 µM)
S. aureus Smith
  MIC: 0.244 µg/mL (≈ 0.698 µM)

## COc1cc(Cn2ccc3c4c(N)nc(N)nc4ccc32)cc(OC)c1OC [Example 39]
E. coli 9637
  MIC: 0.976 µg/mL (≈ 2.57 µM)
[1]; 1440 h
  ED100: 160 mg/kg
  minimal effective dose: 40 mg/kg
[1]; s.c., 60-day survivors
  Cure/Treat at Min. Curing Dose: 2/5
[1]; s.c., dose 20 mg. per kg.
  ΔMST (increase in mean survival time): 7.1
[2]; [5]
  MTD: 160 mg/kg
[3]
  response vs control in vivo at 10 mg/kg: 163%
K. pneumoniae 10031
  MIC: 0.122 µg/mL (≈ 0.322 µM)
S. paratyphi 11737
  MIC: 3.9 µg/mL (≈ 10.3 µM)
P. vulgaris 6896
  MIC: 7.81 µg/mL (≈ 20.6 µM)
S. aureus 53-180
  MIC: 0.061 µg/mL (≈ 0.161 µM)
N. catarrhalis 8193
  MIC: 0.0152 µg/mL (≈ 0.0401 µM)
S. aureus Smith
  MIC: 0.122 µg/mL (≈ 0.322 µM)

## Nc1nc(N)c2c(ccc3c2ccn3Cc2ccsc2)n1 [Example 41]
E. coli 9637
  MIC: 0.244 µg/mL (≈ 0.826 µM)
[1]; [6]
  ED100: 160 mg/kg
  minimal effective dose: 20 mg/kg
[1]; [7]
  Cure/Treat at Min. Curing Dose: 3/5
[2]; [8]
  MTD: 320 mg/kg
[3]; mice, I.P., 10 mg/kg
  response vs control in vivo at 10 mg/kg: 147%
K. pneumoniae 10031
  MIC: 0.061 µg/mL (≈ 0.207 µM)
S. paratyphi 11737
  MIC: 0.976 µg/mL (≈ 3.3 µM)
P. vulgaris 6896
  MIC: 1.95 µg/mL (≈ 6.6 µM)
S. aureus 53-180
  MIC: 0.976 µg/mL (≈ 3.3 µM)
N. catarrhalis 8193
  MIC: 0.0152 µg/mL (≈ 0.0515 µM)
S. aureus Smith
  MIC: 0.976 µg/mL (≈ 3.3 µM)

## Nc1nc(N)c2c(ccc3c2ccn3Cc2ccccn2)n1 [Example 43]
E. coli 9637
  MIC: 0.488 µg/mL (≈ 1.68 µM)
[1]; [4]
  ED100: 80 mg/kg
  minimal effective dose: 20 mg/kg
[1]; s.c., 60-day survivors
  Cure/Treat at Min. Curing Dose: 2/5
[1]; s.c., dose 20 mg. per kg.
  ΔMST (increase in mean survival time): 11.6
[2]; [5]
  MTD: 80 mg/kg
[3]
  response vs control in vivo at 20 mg/kg: 146%
K. pneumoniae 10031
  MIC: 0.061 µg/mL (≈ 0.21 µM)
S. paratyphi 11737
  MIC: 0.244 µg/mL (≈ 0.84 µM)
P. vulgaris 6896
  MIC: 0.244 µg/mL (≈ 0.84 µM)
S. aureus 53-180
  MIC: 0.488 µg/mL (≈ 1.68 µM)
N. catarrhalis 8193
  MIC: < 0.0009 µg/mL
S. aureus Smith
  MIC: 0.976 µg/mL (≈ 3.36 µM)

## Nc1nc(N)c2c(ccc3c2ccn3Cc2ccc3ccccc3n2)n1 [Example 50]
E. coli 9637
  MIC: 7.81 µg/mL (≈ 22.9 µM)
[1]; [4]
  ED100: 5 mg/kg
  minimal effective dose: 1.25 mg/kg
[1]; s.c., 60-day survivors
  Cure/Treat at Min. Curing Dose: 2/5
[1]; s.c., dose 1.25 mg. per kg.
  ΔMST (increase in mean survival time): 6.9
[2]; [5]
  MTD: 160 mg/kg
[3]; mice, I.P., 10 mg/kg
  response vs control in vivo at 10 mg/kg: 145%
K. pneumoniae 10031
  MIC: 0.122 µg/mL (≈ 0.358 µM)
S. paratyphi 11737
  MIC: 7.81 µg/mL (≈ 22.9 µM)
P. vulgaris 6896
  MIC: 7.81 µg/mL (≈ 22.9 µM)
S. aureus 53-180
  MIC: 0.488 µg/mL (≈ 1.43 µM)
N. catarrhalis 8193
  MIC: 0.0038 µg/mL (≈ 0.0112 µM)
S. aureus Smith
  MIC: 0.976 µg/mL (≈ 2.87 µM)

## Nc1cccc(Cn2ccc3c4c(N)nc(N)nc4ccc32)c1 [Example 62, 7-[(3-Aminophenyl)methyl]-7H-pyrrolo[3,2-f]quinazoline-1,3-diamine]
E. coli 9637
  MIC: 0.244 µg/mL (≈ 0.802 µM)
[1]; [4]
  ED100: 20 mg/kg
  minimal effective dose: 5 mg/kg
[1]; s.c., 60-day survivors
  Cure/Treat at Min. Curing Dose: 3/5
[1]; s.c., dose 1.25 mg. per kg.
  ΔMST (increase in mean survival time): 7.8
[2]; [5]
  MTD: 80 mg/kg
[3]; mice, I.P., 10 mg/kg
  response vs control in vivo at 10 mg/kg: 165%
K. pneumoniae 10031
  MIC: 0.122 µg/mL (≈ 0.401 µM)
S. paratyphi 11737
  MIC: 0.976 µg/mL (≈ 3.21 µM)
P. vulgaris 6896
  MIC: 1.95 µg/mL (≈ 6.41 µM)
S. aureus 53-180
  MIC: 0.244 µg/mL (≈ 0.802 µM)
N. catarrhalis 8193
  MIC: 0.061 µg/mL (≈ 0.2 µM)
S. aureus Smith
  MIC: 0.488 µg/mL (≈ 1.6 µM)

## CS(=O)(=O)c1ccc(Cn2ccc3c4c(N)nc(N)nc4ccc32)cc1 [Example 63, 7-[(4-Methylsulfonylphenyl)methyl]-7H-pyrrolo[3,2-f]quinazoline-1,3-diamine]
E. coli 9637
  MIC: 0.976 µg/mL (≈ 2.66 µM)
[1]; [4]
  minimal effective dose: 10 mg/kg
[1]; s.c., 60-day survivors
  Cure/Treat at Min. Curing Dose: 1/5
[1]; s.c., dose 5 mg. per kg.
  ΔMST (increase in mean survival time): 6.5
[3]; mice, I.P., 10 mg/kg
  response vs control in vivo at 10 mg/kg: 136%
K. pneumoniae 10031
  MIC: 0.122 µg/mL (≈ 0.332 µM)
S. paratyphi 11737
  MIC: 0.976 µg/mL (≈ 2.66 µM)
P. vulgaris 6896
  MIC: 7.81 µg/mL (≈ 21.3 µM)
S. aureus 53-180
  MIC: 0.122 µg/mL (≈ 0.332 µM)
N. catarrhalis 8193
  MIC: 0.0152 µg/mL (≈ 0.0414 µM)
S. aureus Smith
  MIC: 0.122 µg/mL (≈ 0.332 µM)
